Consider 31 compounds from patent publication US20250188057A1, “NON-AROMATIC CYCLIC-PYRIMIDINE ANALOGS AS GLUCOSYLCERAMIDE SYNTHASE INHIBITORS” (Merck Sharp & Dohme LLC, priority 2022, published 2025).

Sequence of glucosylceramide synthase (GCS) (Q16739 whole entry): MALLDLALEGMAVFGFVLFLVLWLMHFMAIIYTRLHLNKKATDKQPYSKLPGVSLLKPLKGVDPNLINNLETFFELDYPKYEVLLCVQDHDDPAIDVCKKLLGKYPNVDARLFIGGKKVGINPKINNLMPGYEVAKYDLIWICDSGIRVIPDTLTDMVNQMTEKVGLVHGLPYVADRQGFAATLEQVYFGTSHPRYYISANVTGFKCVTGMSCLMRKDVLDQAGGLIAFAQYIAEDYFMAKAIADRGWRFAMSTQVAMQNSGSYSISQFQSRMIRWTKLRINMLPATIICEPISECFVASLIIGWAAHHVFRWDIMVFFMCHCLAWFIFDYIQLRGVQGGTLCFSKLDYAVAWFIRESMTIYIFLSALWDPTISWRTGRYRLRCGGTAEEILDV

For this experiment, the target named is glucosylceramide synthase (GCS) (Homo sapiens (Human), UniProt Q16739). In words: UDP-Glo glucosylceramide synthase biochemical assay. As to conditions: endogenous GCS in Golgi preparations isolated from human A375 malignant melanoma skin cells; UDP detection by luminescence. From the text:
A UDP-Glo™ glucosylceramide synthase biochemical assay was utilized to evaluate the effect of test compounds on the activity of endogenous levels of GCS enzyme contained within Golgi preparations isolated from human A375 malignant melanoma skin cells. The UDP-Glo™ glucosylceramide synthase assay uses UDP-Glucose as a nucleotide-glycosyl donor and ceramide as substrate acceptor molecules. In the reaction, glucosylceramide synthase (GCS) transfers glucose from UDP-Glucose to ceramide. Glucosylceramide and UDP are released as products.
Using Promega's UDP-Glo™ Glycosyltransferase assay kit (Promega Corporation, Madison, WI, USA (Promega)), GCS activity was indirectly measured by detecting the amount of UDP produced. An aliquot of GCS enzyme (1.5 μg crude golgi preparation, total protein) and titrated test compound were aliquoted to each well and incubated for 30 minutes at room temperature. […] An equivalent volume of substrate mixture was then added to each well. Following a 20 h incubation at room temperature to allow for GCS turnover of substrate, an equal volume of UDP detection reagent (Promega) was added to each well and incubated for an additional 75 minutes at room temperature to simultaneously convert the accumulated UDP product into ATP and generate light in a luciferase reaction. The generated light was detected using a luminometer. […] luminescence values (RLUs) were normalized to mean “min” and “max” effects, as determined on each plate. “Min” was defined as the mean of the values of the wells treated with vehicle (DMSO) and which represent 0% inhibition; “max” was defined as the mean of the values of the wells treated with a reference inhibitor and which represent the 100% effect. Values for % Emax and EC50 were determined by best-fitting the normalized data to a curve in Activity Base along a four-parameter logistic nonlinear regression (4PL) model (based on the Levenberg-Marquardt algorithm and defined by the equation below): […]
where: n is 4PMin (bottom of the curve); m is 4PMax (top of the curve); i is IP (inflection point of curve); and p is slope. See Levenberg, K., “A Method for the Solution of Certain Problems in Least Squares”, Quart. Appl. Math. 2, (1944), pp 164-168 and Marquardt, D., “An Algorithm for Least Squares Estimation on Nonlinear Parameters”, SIAM J. Appl. Math 11, (1963) pp 431-441.
A word on the IC50: it is the concentration that gives 50% inhibition. Take `N#Cc1cnc(C2CC2)nc1OC[C@H]1CCN(c2ccc(OC(F)F)cn2)C1` [Compound 29, (S)-2-cyclopropyl-4-((1-(5-(difluoromethoxy)pyridin-2-yl)pyrrolidin-3-yl)methoxy)pyrimidine-5-carbonitrile]: the IC50 stood at 148 nM.
Regarding `CC1CN(c2ncc(C(F)(F)F)cn2)CC1COc1nc(C2CC2)ncc1C#N` (stereo not shown) [Compound 53, 2-cyclopropyl-4-((4-methyl-1-(5-(trifluoromethyl)pyrimidin-2-yl)pyrrolidin-3-yl)methoxy)pyrimidine-5-carbonitrile], the IC50 was found to be 148 nM. That is a sub-micromolar value.
Consider `CNC(=O)[C@]12CN(c3nc(C4CC4)ncc3C#N)C[C@H]1C(c1ccc(C)cc1)=NO2` [Compound 67, (3aS,6aR)-5-(5-cyano-2-cyclopropylpyrimidin-4-yl)-N-methyl-3-(p-tolyl)-3a,4,5,6-tetrahydro-6aH-pyrrolo[3,4-d]isoxazole-6a-carboxamide], for which half-maximal inhibition (IC50) was put at 207 nM.
The compound `N#Cc1cnc(C2CC2)nc1N1CC2CCCC1CN(Cc1ccccc1)C2` (stereo not shown) [Compound 72, 4-(3-benzyl-3,9-diazabicyclo[3.3.2]decan-9-yl)-2-cyclopropylpyrimidine-5-carbonitrile] yielded an IC50 of 1860 nM.
`N#Cc1cnc(C2CC2)nc1OC[C@H]1CCN(c2ccc(-c3ccno3)cc2)C1` [Compound 18, (S)-2-cyclopropyl-4-((1-(4-(isoxazol-5-yl)phenyl)pyrrolidin-3-yl)methoxy)pyrimidine-5-carbonitrile] showed an IC50 of 67 nM.
`N#Cc1cnc(C2CC2)nc1OC[C@H]1CCN(c2nnc(C3CC3)s2)C1` [Compound 23, (S)-2-cyclopropyl-4-((1-(5-cyclopropyl-1,3,4-thiadiazol-2-yl)pyrrolidin-3-yl)methoxy)pyrimidine-5-carbonitrile] returned an IC50 of 3660 nM.
For `N#Cc1cnc(C2CC2)nc1OC[C@H]1CCN(c2ccc(-n3ccnc3)cc2)C1` [Compound 31, (S)-4-((1-(4-(1H-imidazol-1-yl)phenyl)pyrrolidin-3-yl)methoxy)-2-cyclopropylpyrimidine-5-carbonitrile], the midpoint of inhibition, the IC50, lay at 28 nM.
Next, `N#Cc1cnc(C2CC2)nc1NC1CN(C(c2ccccc2)c2ccccc2)C1` [Compound 92, 4-((1-benzhydrylazetidin-3-yl)amino)-2-cyclopropylpyrimidine-5-carbonitrile]: 2900 nM.
Take `N#Cc1cnc(C2CC2)nc1OC[C@H]1CCN(c2cnc3ccsc3c2)C1` [Compound 21, (S)-2-cyclopropyl-4-((1-(thieno[3,2-b]pyridin-6-yl)pyrrolidin-3-yl)methoxy)pyrimidine-5-carbonitrile]: inhibition was half-maximal at 1300 nM (IC50).
The compound `N#Cc1cnc(C2CC2)nc1OC[C@H]1CCN(c2ncc(C(F)(F)F)cn2)C1` [Compound 42, (S)-2-cyclopropyl-4-((1-(5-(trifluoromethyl)pyrimidin-2-yl)pyrrolidin-3-yl)methoxy)pyrimidine-5-carbonitrile] returned a half-inhibitory concentration (IC50) of 61 nM.
For the compound `N#Cc1cnc(C2CC2)nc1OC1CCc2ccc(C(F)(F)F)cc21` (stereo not shown) [Compound 98, 2-cyclopropyl-4-((6-(trifluoromethyl)-2,3-dihydro-1H-inden-1-yl)oxy)pyrimidine-5-carbonitrile], the IC50 is 23 nM. This IC50 is about 2.7-fold lower than that of the compound before.
As for `OCc1cnc(C2CC2)nc1OC[C@@H]1CN(c2ccc(C(F)(F)F)nc2)CCO1` [Compound 3, (S)-(2-cyclopropyl-4-((4-(6-(trifluoromethyl)pyridin-3-y)morpholin-2-yl)methoxy)pyrimidin-5-yl)methanol], the IC50 was 2320 nM.
Consider `Cc1nc(N2CC(c3nc4ccccc4n3C)C2)cc(N2CC(c3ccccc3)CC2=O)n1` (stereo not shown) [Compound 119, 1-(2-methyl-6-(3-(1-methyl-1H-benzo[d]imidazol-2-yl)azetidin-1-yl)pyrimidin-4-yl)-4-phenylpyrrolidin-2-one], for which inhibition was half-maximal at 3030 nM (IC50). This IC50 and that of the compound before are within 1.5-fold of each other.
Turning to `N#Cc1cnc(C2CC2)nc1OC1CCc2ccc(OC(F)(F)F)cc21` (stereo not shown) [Compound 97, 2-cyclopropyl-4-((6-(trifluoromethoxy)-2,3-dihydro-1H-inden-1-yl)oxy)pyrimidine-5-carbonitrile], it took 18 nM to reach half-maximal inhibition (IC50).
As to `N#Cc1cnc(C2CC2)nc1OC[C@@H]1C[C@H]1c1ccc(F)cn1` [Compound 62, 2-cyclopropyl-4-(((1R,2R)-2-(5-fluoropyridin-2-yl)cyclopropyl)methoxy)pyrimidine-5-carbonitrile], half-maximal inhibition (IC50) was put at 983 nM.
In turn, `OCc1c(Cl)nc(C2CC2)nc1N1CCc2nc(C3CC3)sc2C1` [Compound 114, (4-chloro-2-cyclopropyl-6-(2-cyclopropyl-6,7-dihydrothiazolo[5,4-c]pyridin-5(4H)-yl)pyrimidin-5-yl)methanol] yielded an IC50 of 3330 nM.
`N#Cc1cnc(C2CC2)nc1OC[C@H]1CCN(c2ccnc(C3CCC3)c2)C1` [Compound 27, (S)-4-((1-(2-cyclobutylpyridin-4-yl)pyrrolidin-3-yl)methoxy)-2-cyclopropylpyrimidine-5-carbonitrile] came in with an IC50 of 3620 nM.
Consider `N#Cc1cnc(C2CC2)nc1OC[C@H]1CCN(c2ccc(C(F)(F)F)cn2)C1` [Compound 43, (S)-2-cyclopropyl-4-((1-(5-(trifluoromethyl)pyridin-2-yl)pyrrolidin-3-yl)methoxy)pyrimidine-5-carbonitrile], for which 40 nM corresponded to half-maximal inhibition (IC50).
For `N#Cc1cnc(C2CC2)nc1OC[C@H]1CCN(c2cccc(-n3cccn3)c2)C1` [Compound 16, (S)-4-((1-(3-(1H-pyrazol-1-yl)phenyl)pyrrolidin-3-yl)methoxy)-2-cyclopropylpyrimidine-5-carbonitrile], the IC50 was found to be 357 nM. Compared with the last compound, the IC50 is about 8.9-fold higher.
Compound `N#Cc1cnc(C2CC2)nc1OCC1CCCN1Cc1ccccc1Cl` (stereo not shown) [Compound 106, 4-((1-(2-chlorobenzyl)pyrrolidin-2-yl)methoxy)-2-cyclopropylpyrimidine-5-carbonitrile] registered an IC50 of 1330 nM.
`N#Cc1ccc(N2CC[C@H](COc3nc(C4CC4)ncc3C#N)C2)cc1F` [Compound 35, (S)-4-((1-(4-cyano-3-fluorophenyl)pyrrolidin-3-yl)methoxy)-2-cyclopropylpyrimidine-5-carbonitirle] gave an IC50 of 458 nM.
Next, `N#Cc1cnc(C2CC2)nc1NC(c1ccccc1)C1(N2CCCCC2)CCC1` (stereo not shown) [Compound 84, 2-cyclopropyl-4-((phenyl(1-(piperidin-1-yl)cyclobutyl)methyl)amino)pyrimidine-5-carbonitrile]: 1240 nM.
Regarding `Cc1nc(-c2ccc(N3CC[C@H](COc4nc(C5CC5)ncc4C#N)C3)cc2)co1` [Compound 40, (S)-2-cyclopropyl-4-((1-(4-(2-methyloxazol-4-yl)phenyl)pyrrolidin-3-yl)methoxy)pyrimidine-5-carbonitrile], the IC50 worked out at 29 nM. This IC50 lies about 43-fold lower than the previous one.
Turning to `N#Cc1cnc(C2CC2)nc1OCC1CCC(c2ccccc2)O1` (stereo not shown) [Compound 102, 2-cyclopropyl-4-((5-phenyltetrahydrofuran-2-yl)methoxy)pyrimidin-5-carbonitrile], it took 195 nM to reach half-maximal inhibition (IC50).
For the compound `N#Cc1cnc(C2CC2)nc1OC[C@H]1CCN(c2cccc(-c3ncco3)c2)C1` [Compound 9, (S)-2-cyclopropyl-4-((1-(3-(oxazol-2-yl)phenyl)pyrrolidin-3-yl)methoxy)pyrimidine-5-carbonitrile], the half-inhibitory concentration (IC50) is 826 nM.
With `N#Cc1cnc(C2CC2)nc1OC[C@H]1C[C@@H]1c1ccc(F)cn1` [Compound 61, 2-cyclopropyl-4-(((1S,2S)-2-(5-fluoropyridin-2-yl)cyclopropyl)methoxy)pyrimidine-5-carbonitrile], the IC50 worked out at 1030 nM.
`N#Cc1cnc(C2CC2)nc1NC[C@H]1CCN(c2ccc(-n3cccn3)nc2)C1` [Compound 48, (R)-4-(((1-(6-(1H-pyrazol-1-yl)pyridin-3-yl)pyrrolidin-3-yl)methyl)amino)-2-cyclopropylpyimidine-5-carbonitrile] showed a concentration for half-maximal inhibition (IC50) of 969 nM.
`N#Cc1cnc(C2CC2)nc1OCC1CCCN1Cc1ccc(F)cc1` (stereo not shown) [Compound 104, 2-cyclopropyl-4-((1-(4-fluorobenzyl)pyrrolidin-2-yl)methoxy)pyrimidine-5-carbonitrile] yielded an IC50 of 1870 nM.
Take `OCc1c(Cl)nc(C2CC2)nc1N1Cc2nc(Br)sc2C1` [Compound 111, (4-(2-bromo-4,6-dihydro-5H-pyrrolo[3,4-d]thiazol-5-yl)-6-chloro-2-cyclopropylpyrimidin-5-yl)methanol]: the IC50 came to 3260 nM.
Consider `COc1cc(N2CC[C@@H](COc3nc(C4CC4)ncc3C#N)C2)c(F)cn1` [Compound 38, (R)-2-cyclopropyl-4-((1-(5-fluoro-2-methoxypyridin-4-yl)pyrrolidin-3-yl)methoxy)pyrimidine-5-carbonitrile], for which half-maximal inhibition (IC50) required 2940 nM.
The compound `N#Cc1cnc(C2CC2)nc1OCC1CCCN1c1ccccc1` (stereo not shown) [Compound 59, 2-cyclopropyl-4-((1-phenylpyrrolidin-2-yl)methoxy)pyrimidine-5-carbonitrile] gave a concentration for half-maximal inhibition (IC50) of 363 nM.
